Literature values as cited in patent publication US20210130806A1, “ENGINEERED BACTERIA EXPRESSING RACEMASE FOR TREATING DISEASES ASSOCIATED WITH HYPERAMMONEMIA” (Synlogic Operating Company, Inc., priority 2017, published 2021).

What was measured:
[1] = test system: E. coli; details: in vitro and in clinical studies
[2] = test system: hepatic encephalopathy; details: compared with placebo, over a 6-month period

CO[C@H]1/C=C/O[C@@]2(C)Oc3c(C)c(O)c4c(O)c(c5c(nc6cc(C)ccn65)c4c3C2=O)NC(=O)/C(C)=C\C=C\[C@H](C)[C@H](O)[C@@H](C)[C@@H](O)[C@@H](C)[C@H](OC(C)=O)[C@@H]1C [Rifaximin]
activity against E. coli [1]: active | risk of an episode of hepatic encephalopathy [2]: significantly reduce
